In patent US20080286213A1, “Pharmaceuticals for treating or preventing oral diseases” (HAWLEY & HAZEL (BVI) COMPANY LIMITED, priority 2007, published 2008):

Key:
IL-1β (interleukin) = experiment: LUMINEX liquid-phase chip analysis of KB cell supernatant, IL-1β; assay type: cell-based, human; details: KB cells; the larger the value, the stronger the anti-inflammatory ability; concentration not given
Description: (§1) Anti-inflammatory activity was assessed using the KB cell (the epidermis cancer cell in human oral cavity). During the experiment, the KB cell inoculated in the cultivating plate was treated with or without positive control or compound morusin. After the treatment, the supernatant of the cultivating medium was collected and stored in −80° C. refrigerator. Inflammation was assessed by measuring several inflammation markers: Prostaglandin E2 (PGE2) in the supernatant was detected by Enzyme-linked immunsorbent assay, and LUMINEX™ multifunctional liquid-phase chip analysis system was used for the detection of granulocyte […] colony stimulating factor (GM-CSF), tumor necrosis factor-alpha (TNF-α), and interleukins 1-beta and 6 (IL-1β and IL-6).
(§2) LUMINEX™ multifunctional liquid-phase chip analyses of GM-CSF, TNF-α, IL-1 and IL-6: The 96-well plate was enclosed with enclosing liquid for 30 minutes. Fluorescent microspheres were added into the 96-well plate after dilution. The standard and the samples to be measured were added, and incubated overnight at 4° C. The next day, the supernatant was discarded and 50 μL GM-CSF, TNF-α, IL-1β and IL-6 antibodies were added to each well. After being rinsed for 4 times, the 96-well plate was placed in a shaking table, which was in ambient temperature, to keep the plate away from light for 1 hour. […]

Prostaglandin E2 (PGE2) = experiment: PGE2 enzyme-linked immunosorbent assay in KB cell supernatant; assay type: cell-based, human; details: oral KB cell, PGE2 in supernatant by ELISA
Description: as §1

[1] = system: TNF-α (Tumor Necrosis Factor); experiment: LUMINEX liquid-phase chip analysis of KB cell supernatant, TNF-α; assay type: cell-based, human; details: KB cells; the larger the value, the stronger the anti-inflammatory ability; concentration not given
Description: as §1, §2

[2] = system: Fusobacterium nucleatum subsp. Polymorphum (F. n) ATCC 10953; experiment: MIC by micro-dilution method; assay type: cell-based; details: no unit in table; dilution series 250-0.12 mg/L, ceiling 250 ppm; 37°C, 18-24 h
Description: (§3) A single colony was picked from the Trypticase Digested Soybean peptone agar blood plate (TSA5B) of ordinarily stored bacteria species and used to inoculate corresponding broth culture medium, which was cultivated in a microaerobic environment (P.g needs anaerobic cultivation) with 95% air, 5% CO2 at 37.0° C.±1.0° C., wherein S.m was cultivated for 18-24 h, and the species were cultivated for 40-48 h. Then corresponding broth cultivate medium was used to adjust the turbidity of the bacteria suspension to 0.5^# McFarland standard, equivalent to 1.0×10^8 CFU/mL.
(§4) The operating steps were:
(§5) a. Preparation of the stock solution of antibacterial pharmaceutical: 1% stock solution of various antibacterial pharmaceuticals was prepared with 100% pure ethanol as solvent. The prepared stock solution was filtered to eliminate bacteria, and was distributed into small portions to be used.
(§6) b. Range of measured concentration: the present experiment used 250 ppm as the ceiling measured concentration of the anti-bacterial pharmaceutical.
(§7) c. Measuring method: micro-dilution method.
(§8) First, 100 μL broth medium was added to each well of the 96-well plate, then 100 μL sterile anti-bacteria pharmaceutical solution, which was diluted 10-fold (1000 mg/L), was added to each hole of the first column. Then each well of the first column was mixed repeatedly for 7-8 times using a multi-channel micropipet, and 100 μL sample was transferred to the second column after sufficiently mixing the pharmaceutical with TSB. After being similarly mixed for 7-8 times, 100 μL sample was transferred to the third column, and likewise to the wells of the remaining columns. Thus the concentration of the pharmaceutical was gradiently diluted 2-fold between the columns, from 500 mg/L in the first column to 0.24 mg/L in the last column (the 12th column).
(§9) The bacteria to be tested and standard bacteria were prepared as above. Both bacteria solutions were diluted with broth medium to a bacteria content of about 10^6 CFU/mL. Then 100 μL was inoculated into each well of the 96-well plate containing the anti-bacterial pharmaceutical. Thus the final diluted concentrations of the anti-bacteria pharmaceutical in each column were 250, 125, 62.5 . . . 0.12 mg/L, and the final inoculation quantity is about […] in each well. The 96-well plate was placed on a microshaker and shaken for 1 min to mix the solutions in each well. The microwell plate was covered and sealed with adhesive paper to reduce the evaporation during the incubation process. The plate was placed in a humid box, cultivated in microaerobic environment with 95% air, 5% CO2 (or in anaerobic environment with 90% N2, 5% H2, 5% CO2) at 37.0° C.±1.0° C. for 18-24 h. The 96-well plate is placed under an enzyme-labeling instrument. The growth characteristics of the tested bacteria were compared with the standard bacteria to determine the MIC, which was the lowest anti-bacterial pharmaceutical concentration contained in the well without bacterial growth.

[3] = system: Actinomyces viscosus (A. v) ATCC 27044; experiment: MIC by micro-dilution method; assay type: cell-based; details: no unit in table; dilution series 250-0.12 mg/L, ceiling 250 ppm; 37°C, 18-24 h
Description: as §3, §4, §5, §6, §7, §8, §9

[4] = system: Streptococcus mutans (S. m) ATCC 25175; experiment: MIC by micro-dilution method; assay type: cell-based; details: no unit in table; dilution series 250-0.12 mg/L, ceiling 250 ppm; 37°C, 18-24 h
Description: as §3, §4, §5, §6, §7, §8, §9

[5] = system: Actinobacillus actinomycetemcomitans (A. a) ATCC 43717; experiment: MIC by micro-dilution method; assay type: cell-based; details: no unit in table; dilution series 250-0.12 mg/L, ceiling 250 ppm; 37°C, 18-24 h
Description: as §3, §4, §5, §6, §7, §8, §9

[6] = system: Streptococcus sanguis (S. sa) ATCC 10556; experiment: MIC by micro-dilution method; assay type: cell-based; details: no unit in table; dilution series 250-0.12 mg/L, ceiling 250 ppm; 37°C, 18-24 h
Description: as §3, §4, §5, §6, §7, §8, §9

[7] = system: Actinomyces naeslundii (A. n) ATCC 12104; experiment: MIC by micro-dilution method; assay type: cell-based; details: no unit in table; dilution series 250-0.12 mg/L, ceiling 250 ppm; 37°C, 18-24 h
Description: as §3, §4, §5, §6, §7, §8, §9

[8] = system: Porphyromonas gingivalis (P. g) ATCC 33277; experiment: MIC by micro-dilution method; assay type: cell-based; details: no unit in table; dilution series 250-0.12 mg/L, ceiling 250 ppm; anaerobic, 37°C, 18-24 h
Description: as §3, §4, §5, §6, §7, §8, §9

GM-CSF = experiment: LUMINEX liquid-phase chip analysis of KB cell supernatant, GM-CSF; assay type: cell-based, human; details: KB cells; the larger the value, the stronger the anti-inflammatory ability; concentration not given
Description: as §1, §2

IL-6 (interleukin) = experiment: LUMINEX liquid-phase chip analysis of KB cell supernatant, IL-6; assay type: cell-based, human; details: KB cells; the larger the value, the stronger the anti-inflammatory ability; concentration not given
Description: as §1, §2

Structure (SMILES)	anti-inflammatory effect, IL-1β (interleukin) (IL-1β (interleukin)) [%]	50% inhibitory concentration (Prostaglandin E2 result) (Prostaglandin E2 (PGE2)) [ppm]	anti-inflammatory effect, TNF-α (Tumor Necrosis Factor) [1] [%]	MIC, F. n ATCC 10953 [2]	MIC, A. v ATCC 27044 [3]	MIC, S. m ATCC 25175 [4]	MIC, A. a ATCC 43717 [5]	MIC, S. sa ATCC 10556 [6]	MIC, A. n ATCC 12104 [7]	MIC, P. g ATCC 33277 [8]	anti-inflammatory effect, GM-CSF (GM-CSF) [%]	anti-inflammatory effect, IL-6 (interleukin) (IL-6 (interleukin)) [%]
CC(C)=CCc1c(-c2ccc(O)cc2O)oc2c3c(cc(O)c2c1=O)OC(C)(C)C=C3 [Morusin, 2-(2,4-dihydroxyphenyl)-5-hydroxy-8,8-dimethyl-3-(3-methyl-2-butenyl)-4H,8H-Benzo(1,2-b:3,4-b′)dipyran-4-one]	20	0.02	91	15.6	2.4	3.9	2.4	3.9	1.9	1.9	9	49
Oc1cc(Cl)ccc1Oc1ccc(Cl)cc1Cl [Triclosan]	7	~0.02	81	7.8	3.9	3.9	1.95	7.8	3.9	7.8	5	31
